By IC50 is commonly meant the concentration at which inhibition is half-maximal. As a reminder, the CC50 is the concentration that lowers cell viability or growth by half. One may read the inhibition as the percentage by which the read-out fell short of the control.

Our source for the IC50, CC50 and inhibition values is ChEMBL document CHEMBL4387790, “Ophiobolin-Type Sesterterpenoids from the Mangrove Endophytic Fungus Aspergillus sp. ZJ-68” (J Nat Prod, 2019).

The target of data set [1] is T1, Phosphotyrosine protein phosphatase (Mycobacterium tuberculosis, UniProt A0A045ISB3).
T1 sequence (A0A045ISB3 whole entry): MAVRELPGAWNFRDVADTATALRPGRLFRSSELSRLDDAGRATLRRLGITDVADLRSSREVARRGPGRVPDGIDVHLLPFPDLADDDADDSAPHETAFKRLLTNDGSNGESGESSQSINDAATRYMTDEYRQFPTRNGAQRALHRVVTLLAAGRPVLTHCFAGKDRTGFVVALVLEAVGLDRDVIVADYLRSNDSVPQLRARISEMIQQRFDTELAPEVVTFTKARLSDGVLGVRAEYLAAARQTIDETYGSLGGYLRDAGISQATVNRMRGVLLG
Kind of data set: Inhibition of Mycobacterium tuberculosis H37Ra PTPB expressed in Escherichia coli BL21 (DE3) using p-nitrophenyl phosphate as substrate preincubated for 10 mins followed by substrate addition and measured for 5 mins by spectrophotometric analysis.

A short description of data set [2]: Cytotoxicity against mouse RAW264.7 cells assessed as reduction in cell viability by MTT assay. It counts as cell-based. On the technique in general: Formazan colour is commonly taken as a measure of viable cells.
In data set [3] the test system is RAW264.7. Description: Anti-inflammatory activity in mouse RAW264.7 cells assessed as inhibition of lipopolysaccharide-induced nitric oxide production incubated for 24 hrs coincubated with LPS by Griess reagent based assay. It counts as functional, cell-based. Conditions: RAW264.7, 24 h. In general terms: Nitrite, measured by Griess reagent, commonly stands in for NO production.

Data set [4] addresses T1, Phosphotyrosine protein phosphatase. Description: Inhibition of Mycobacterium tuberculosis H37Ra PTPB using p-nitrophenyl phosphate as substrate.
For data set [5], the system named is RAW264.7. Kind of data set: Anti-inflammatory activity in mouse RAW264.7 cells assessed as inhibition of lipopolysaccharide-induced nitric oxide production at 50 uM incubated for 24 hrs coincubated with LPS by Griess reagent based assay. The format is functional. Conditions: RAW264.7, 24 h.

SMILES strings stand for the structures.

Regarding `CC(C)=C/C=C\[C@H](C)[C@H]1CC[C@]2(C)C[C@H]3[C@H]4/C(=C\C[C@@H]12)CO[C@@]4(O)C[C@@]3(C)O`, the IC50 in data set [1] was greater than 50 µM. In addition, in data set [2], the half-maximal cytotoxic concentration (CC50) was found to be 31 µM.
The like results for `CC(C)=C/C=C\[C@H](C)[C@H]1CC[C@]2(C)C[C@@H]3C(C)=CC(=O)[C@@H]3/C(C=O)=C\C[C@@H]12` were, in that order, 24 µM and 21 µM.
With `CC(C)=C/C=C\[C@H](C)[C@H]1CC[C@]2(C)CC3=C(C(=O)C[C@H]3C)/C(CO)=C\C[C@@H]12`, the concentration for half-maximal inhibition (IC50) in data set [1] was greater than 50 µM; in the data set with RAW264.7 [3], 14 µM. In addition, the CC50 in data set [2] was greater than 50 µM.
`CC(C)=C/C=C\[C@H](C)[C@H]1CC[C@]2(C)C[C@@H]3C(C)=CC(=O)[C@H]3/C(CO)=C\C[C@@H]12`: the IC50 in data set [1] worked out at 37 µM; in the data set on RAW264.7 [3] it was 25 µM. The CC50 in data set [2] was greater than 50 µM.
Taken in the same sequence, the figures for `CC1=CC(=O)[C@H]2/C(C=O)=C\C[C@H]3[C@@H]([C@@H](C)/C=C\[C@@H]4OC4(C)C)CC[C@]3(C)C[C@H]12` were 35 µM, 24 µM and greater than 50 µM.
The like results for `C[C@@H](/C=C\[C@H](O)C(C)(C)O)[C@H]1CC[C@]2(C)C[C@H]3[C@@H](C(=O)C[C@@]3(C)O)/C(C=O)=C\C[C@@H]12` were, in that order, greater than 50 µM, 16 µM and greater than 50 µM.
The like results for `CC1=CC(=O)[C@H]2/C(C=O)=C\C[C@H]3[C@@H]([C@@H](C)/C=C\[C@H](O)C(C)(C)O)CC[C@]3(C)C[C@H]12` were, in that order, greater than 50 µM, 14 µM and greater than 50 µM.
Turning to `CC1=CC(=O)[C@@H]2/C(C=O)=C\C[C@H]3[C@@H]([C@@H](C)/C=C\[C@H](O)C(C)(C)O)CC[C@]3(C)C[C@H]12`, the IC50 turned out to be 19 µM in data set [1] and 21 µM in the data set on RAW264.7 [3]. Also, the CC50 in data set [2] is greater than 50 µM.
The like results for `CC(C)=C/C=C\[C@H](C)[C@H]1CC[C@]2(C)C[C@H]3[C@@H]4/C(=C\C[C@@H]12)C(=O)O[C@]4(O)C[C@@]3(C)O` were, in that order, 36 µM, greater than 50 µM and greater than 50 µM.
As for `COc1ccc2c(c1)c(CC(=O)O)c(C)n2C(=O)c1ccc(Cl)cc1` [INDOMETHACIN], in data set [2], the half-maximal cytotoxic concentration (CC50) was greater than 50 µM. Also, in the data set with RAW264.7 [3], the IC50 was 38 µM.
In the case of `CC(C)[C@H]1CC[C@@]2(C)CC[C@]3(CO)CC4=C(C(=O)O)CC[C@H]4[C@]4(C)C[C@@H]4[C@H]3[C@H]12`, half-maximal inhibition in data set [4] (IC50) required 2.2 µM.
Consider `CC(C)=C/C=C\[C@H](C)[C@H]1CC[C@]2(C)C[C@H]3[C@H]4/C(=C\C[C@@H]12)C(=O)O[C@H]4C[C@@]3(C)O`, for which the IC50 in data set [1] is greater than 50 µM. Moreover, the CC50 in data set [2] was 29 µM.
The like results for `CC(C)=C/C=C\[C@H](C)[C@H]1CC[C@]2(C)C[C@H]3[C@@H](C(=O)C[C@@]3(C)O)/C(C=O)=C\C[C@@H]12` were, in that order, greater than 50 µM and 15 µM.
Regarding `CC(C)=C/C=C\[C@H](C)[C@H]1CC[C@]2(C)C[C@H]3[C@@H]4/C(=C\C=C\12)C(=O)N[C@@H]4C[C@@]3(C)O`, the IC50 (in data set [1]; in the data set on RAW264.7 [3]) was greater than 50 µM each time. In data set [2], the CC50 was greater than 50 µM.
Turning to `CO[C@]12C[C@@](C)(O)[C@H]3C[C@@]4(C)CC[C@H]([C@@H](C)/C=C\C=C(C)C)[C@@H]4C/C=C(/C(=O)N1)[C@@H]32`, the IC50 (in data set [1]; in the data set with RAW264.7 [3]) was 42 µM each time. Further, the CC50 in data set [2] is greater than 50 µM.
For `CO[C@]12C[C@@](C)(O)[C@H]3C[C@@]4(C)CC[C@H]([C@@H](C)/C=C\C=C(C)C)/C4=C/C=C(/C(=O)N1)[C@@H]32`, the IC50 (in data set [1]; in the data set on RAW264.7 [3]) was greater than 50 µM in each case. In addition, the CC50 in data set [2] is greater than 50 µM.
Regarding `CC1=CC(=O)[C@H]2/C(C=O)=C\C[C@H]3[C@@H]([C@@H](C)/C=C\[C@@H](O)C(C)(C)O)CC[C@]3(C)C[C@H]12`, the IC50 (in data set [1]; in the data set with RAW264.7 [3]) was greater than 50 µM throughout. Besides, the CC50 in data set [2] is greater than 50 µM.
As to `CC(C)=C/C=C\[C@H](C)[C@H]1CC[C@]2(C)C[C@@]3(O)[C@H](C)C[C@@H](O)[C@@H]3/C(C=O)=C\C[C@@H]12`, the IC50 (in data set [1]; in the data set on RAW264.7 [3]) was greater than 50 µM in each case. Also, the CC50 in data set [2] was greater than 50 µM.
As to `CC(C)=C/C=C\[C@H](C)[C@H]1CC[C@]2(C)C[C@H]3[C@@H]4/C(=C\C[C@@H]12)CO[C@]4(O)C[C@@]3(C)O`, in data set [1], the IC50 was greater than 50 µM. Further, in data set [2], the half-maximal cytotoxic concentration (CC50) worked out at 18 µM.
Take `CC(C)=C/C=C\[C@H](C)[C@H]1CC[C@]2(C)C[C@H]3[C@@H]4/C(=C\C=C\12)C(=O)N[C@]4(O)C[C@@]3(C)O`: the IC50 in data set [1] is 39 µM; with RAW264.7 [3], greater than 50 µM. The CC50 in data set [2] is greater than 50 µM.
Regarding `CC(C)=C/C=C\[C@H](C)[C@H]1CC[C@]2(C)C[C@H]3[C@H](C(=O)C[C@@]3(C)O)/C(C=O)=C\C[C@@H]12`, in data set [1], the half-inhibitory concentration (IC50) was greater than 50 µM. In addition, the CC50 in data set [2] came to 4.8 µM.
As to `CC(C)=C/C=C\[C@H](C)[C@H]1CC[C@]2(C)C[C@H]3[C@@H](/C(C=O)=C\C[C@@H]12)[C@H](O)C[C@@]3(C)O`, the IC50 in data set [1] was greater than 50 µM; with RAW264.7 [3] it was 9.6 µM. Besides, the CC50 in data set [2] was greater than 50 µM.
`CC(C)=C/C=C\[C@H](C)[C@H]1CC[C@]2(C)C[C@@H]3C(C)=CC(=O)[C@H]3/C(C=O)=C\C[C@@H]12` had an IC50 in data set [1] greater than 50 µM. Moreover, in data set [2], the CC50 turned out to be 3.8 µM.
On to `CC1=CC(=O)[C@@H]2/C(C=O)=C\C[C@H]3[C@@H]([C@@H](C)/C=C\[C@@H](O)C(C)(C)O)CC[C@]3(C)C[C@H]12`, for which the inhibition at 50 µM in the data set with RAW264.7 [5] was less than 40%. In addition, the IC50 (in data set [1]; in the data set with RAW264.7 [3]) was greater than 50 µM throughout. In data set [2], the half-maximal cytotoxic concentration (CC50) was greater than 50 µM.
On to `CC(C)=C/C=C\[C@H](C)[C@H]1CC[C@]2(C)C[C@@H]3C(C)=CC(=O)[C@H]3/C(C(=O)O)=C\C[C@@H]12`, for which the IC50 in data set [1] is 28 µM; in the data set on RAW264.7 [3] it was greater than 50 µM. In addition, the CC50 in data set [2] is greater than 50 µM.
